Where two headings read alike, the source gives them in different places.
Legend:
[1] = system: panel of tumor cell lines; details: cited from earlier work
RSV = RSV antiviral assay (Renilla luciferase reporter virus rA2-Rluc in A549 cells); assay type: cell-based, respiratory syncytial virus; details: for EC50 / IC50: human respiratory syncytial virus; for EC50: A549, read-out: EC50 against RSV (Table S12); for Selectivity Index: Selectivity index = CC50/IC50
Procedure: A549 (CCL-185, ATCC) cells were seeded at 1.6 × 10^4 cells in 100 μL of 5% FBS/1X penicillin–streptomycin/F12 medium per well in 96-well µClear® black plates with a clear bottom (Greiner 655090). The cells were infected with 400 PFU/well of a recombinant RSV encoding Renilla luciferase as an additional transcription unit (rA2-Rluc) in a total volume of 50 µL/well and allowed to adsorb for 1 h. Purified compounds were serially diluted two-fold in triplicate and 50 µL/well of the diluted extracts were added to the infected cells. After further incubation at 37 °C and 5% CO2 for 24 h, the supernatants were removed and cells were lysed using Renilla lysis buffer (Promega). Luciferase activity was measured with the Renilla Luciferase reagent (Promega) and BioTek Synergy Mx microplate luminometer using Gen5 version 2.00.18 software. The RSV antiviral effect for the test samples was determined by normalizing to the DMSO-treated control samples and multiplying by 100 to obtain the percent of control. Statistical analysis was performed using GraphPad Prism software version 9.4.1.

[2] = Cytotoxicity assay (MTT) in uninfected A549 cells; assay type: cell-based; details: human, means ± SEM of triplicate samples
Procedure: To test for cell viability, duplicate 96-well plates of uninfected A549 cells were set up in parallel with the RSV antiviral assay. Extracts were diluted and used to treat cells as described above for the RSV antiviral assay. The negative control for cytotoxicity was 2% DMSO while the positive was 2 μM (final concentration) of PDKI inhibitor. After the 24 h incubation period, the cells were processed for an MTT Proliferation Assay (Provost and […] Research) according to the manufacturer's protocol. Absorbance at 570 nm was measured by a microplate luminometer and standardized to control as above. Two percent DMSO and 2 μM PDK1 inhibitor (CalBioChem) were used as negative and positive controls for cell death, respectively. Statistical analysis was performed using GraphPad Prism software version 9.4.1.

ESKAPE pathogens = test: Antibacterial screen; assay type: cell-based
Candida strains = test: Antifungal screen; assay type: cell-based; details: several Candida strains
[3] = Stability in solution (NMR / reversed-phase HPLC observation); assay type: physicochemical; details: CDCl3, NMR solvent
Procedure: While NMR data were collected on purified suberitenone I (6), the signals decreased in intensity while those of a new species grew in intensity. […] Thus, suberitenone J (7) is the oxaspiro-ring-opened isomer, existing in equilibrium with 6. When the two were separated by reversed-phase HPLC, both reverted to an equilibrium mixture of ~3:1 6:7 over 24 h.

HIV gene expression = system: HIV gene expression; parameters: method as in PMID 27768313; details: cited from earlier work
MRSA = system: MRSA; parameters: method as in doi:10.1021/jo00128a034, PMID 15104501, doi:10.1016/j.tetlet.2004.04.091, doi:10.1016/j.tetlet.2018.07.055; details: cited from earlier work
[4] = A549, 24 h, read-out: IC50 (RSV antiviral)
[5] = A549, read-out: IC50 (RSV antiviral, text)

Row | Compound | EC50 (RSV) | Selectivity Index (RSV) | IC50 (RSV; [4]) | CC50 at 24 h [2] | other results
1 | 19-episuberitenone B |  |  |  |  | cytotoxicity against a panel of tumor cell lines [1]: weak cytotoxicity
2 | CC(=O)OC1CC2(C)C=C3C4CC(=O)C(C)(CC4O)C3CC2C2(C)CCCC(C)(C)C12 (stereo not drawn) [Compound 1, Neosuberitenone A] | > 50 µM |  |  |  | viral inhibitory effects (RSV; at 25 µg/mL): did not show any viral inhibitory effects
3 | CC(=O)OC1CC2(C)C(CCC3(C4CC(=O)C(C)=CC4O)OC23)C2(C)CCCC(C)(C)C12 (stereo not drawn) [Compound 2, Suberitenone E] | 20.5 µM | 4.3 | 20.5 ± 0.7 µM | 87.3 ± 38.1 µM | 
4 | CC(=O)OC1CC2(C)C(O)C(C3CC(=O)C(C)=CC3O)=CCC2C2(C)CCCC(C)(C)C12 (stereo not drawn) [Compound 3, Suberitenone F] | 9.8 µM | 3.7 | 9.8 ± 1.4 µM | 36 ± 5.3 µM | antibacterial activity (ESKAPE pathogens): inactive; activity against RSV (in words) (RSV): active; antifungal activity (Candida strains): inactive
5 | CC(=O)O[C@@H]1C[C@@]2(C)C(=O)C([C@H]3CC(=O)C(C)=C[C@H]3O)=CCC2[C@@]2(C)CCCC(C)(C)C12 (stereo partly drawn) [Compound 4, Suberitenone G] | 11 µM | 3.7 | 11 ± 1.3 µM | 40.7 ± 8.3 µM | stability in CDCl3 [3]: decomposition was observed
6 | COC1C(C)C(=O)CC(C2(O)CCC3C(C)(CC(OC(C)=O)C4C(C)(C)CCCC43C)C2)C1O (stereo not drawn) [Compound 5, Suberitenone H] | 10.9 µM | 4.7 | 10.9 ± 1.8 µM | 51.1 ± 17.5 µM | 
7 | CC(=O)OC1CC2(C)C=C(C3CC(=O)C(C)=CC3O)CCC2C2(C)CCCC(C)(C)C12 (stereo not drawn) [Compound 10, suberitenone A] | 7.9 µM | 4.3 | 7.8 ± 0.2 µM | 33.3 ± 1.3 µM | antibacterial activity (ESKAPE pathogens): inactive; activity against RSV (in words) (RSV): active; IC50 (RSV; [5]): 7.9 µM; antifungal activity (Candida strains): inactive
8 | CC(=O)OC1CC2(C)CC(O)(C3CC(=O)C(C)=CC3O)CCC2C2(C)CCCC(C)(C)C12 (stereo not drawn) [Compound 11, suberitenone B] | 3.5 µM | 21.1 | 3.2 ± 0.4 µM | 67.6 ± 16.3 µM | antibacterial activity (ESKAPE pathogens): inactive; activity against RSV (in words) (RSV): active; IC50 (RSV; [5]): 3.5 µM; antifungal activity (Candida strains): inactive
9 | anvilone A |  |  |  |  | HIV gene expression (HIV gene expression): turned on HIV gene expression
10 | isosuberitenone B |  |  |  |  | cytotoxicity against a panel of tumor cell lines [1]: weak cytotoxicity
11 | oxaspirosuberitenone |  |  |  |  | antibacterial activity against MRSA (MRSA): mild antibacterial activity
